Measured values as given in the Kinase Knowledgebase extract (Sharma et al. 2016).
“And” between values parts separate entries of the source, which are not always exact repeats. Equal entries are not always repeated.

Legend:
PIK3CA (human) = PIK3CA (human) (UniProt P42336); experiment: Inhibition of PIK3CA Kinase Activity
PIK3CG (human) = PIK3CG (human) (UniProt P48736); experiment: Inhibition of PIK3CG Kinase Activity
PIK3CD (Human) = PIK3CD (Human) (UniProt O00329); experiment: Inhibition of PIK3CD Kinase Activity
Chain of PIK3CD (Human) (O00329 whole entry, looked up): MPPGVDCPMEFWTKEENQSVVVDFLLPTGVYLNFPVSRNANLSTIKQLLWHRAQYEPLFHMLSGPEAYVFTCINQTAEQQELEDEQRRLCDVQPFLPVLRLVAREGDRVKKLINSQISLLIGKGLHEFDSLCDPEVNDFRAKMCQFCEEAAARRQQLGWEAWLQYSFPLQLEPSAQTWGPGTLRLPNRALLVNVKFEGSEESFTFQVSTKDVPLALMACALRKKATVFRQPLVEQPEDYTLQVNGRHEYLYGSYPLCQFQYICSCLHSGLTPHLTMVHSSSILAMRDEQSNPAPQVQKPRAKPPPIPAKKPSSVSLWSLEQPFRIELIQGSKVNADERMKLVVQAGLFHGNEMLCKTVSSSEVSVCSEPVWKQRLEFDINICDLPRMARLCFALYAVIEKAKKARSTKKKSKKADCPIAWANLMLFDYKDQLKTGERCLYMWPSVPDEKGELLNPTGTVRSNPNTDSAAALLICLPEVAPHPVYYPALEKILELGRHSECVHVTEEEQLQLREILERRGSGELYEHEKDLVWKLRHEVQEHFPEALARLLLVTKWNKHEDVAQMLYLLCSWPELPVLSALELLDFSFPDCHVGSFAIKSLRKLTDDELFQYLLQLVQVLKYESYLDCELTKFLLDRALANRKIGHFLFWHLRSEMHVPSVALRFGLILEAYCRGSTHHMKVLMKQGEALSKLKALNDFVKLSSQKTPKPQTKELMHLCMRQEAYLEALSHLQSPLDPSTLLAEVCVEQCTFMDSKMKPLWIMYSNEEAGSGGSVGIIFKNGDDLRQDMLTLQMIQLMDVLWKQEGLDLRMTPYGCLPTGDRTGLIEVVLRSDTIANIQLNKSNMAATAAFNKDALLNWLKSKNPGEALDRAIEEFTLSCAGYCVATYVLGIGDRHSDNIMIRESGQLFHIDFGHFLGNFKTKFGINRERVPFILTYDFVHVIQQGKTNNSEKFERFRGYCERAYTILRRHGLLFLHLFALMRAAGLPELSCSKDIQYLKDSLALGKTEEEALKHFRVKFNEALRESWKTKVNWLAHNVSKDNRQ

PIK3CB (Human) = PIK3CB (Human) (UniProt P42338); experiment: Inhibition of PIK3CB Kinase Activity
Chain of PIK3CB (Human) (P42338 whole entry, looked up): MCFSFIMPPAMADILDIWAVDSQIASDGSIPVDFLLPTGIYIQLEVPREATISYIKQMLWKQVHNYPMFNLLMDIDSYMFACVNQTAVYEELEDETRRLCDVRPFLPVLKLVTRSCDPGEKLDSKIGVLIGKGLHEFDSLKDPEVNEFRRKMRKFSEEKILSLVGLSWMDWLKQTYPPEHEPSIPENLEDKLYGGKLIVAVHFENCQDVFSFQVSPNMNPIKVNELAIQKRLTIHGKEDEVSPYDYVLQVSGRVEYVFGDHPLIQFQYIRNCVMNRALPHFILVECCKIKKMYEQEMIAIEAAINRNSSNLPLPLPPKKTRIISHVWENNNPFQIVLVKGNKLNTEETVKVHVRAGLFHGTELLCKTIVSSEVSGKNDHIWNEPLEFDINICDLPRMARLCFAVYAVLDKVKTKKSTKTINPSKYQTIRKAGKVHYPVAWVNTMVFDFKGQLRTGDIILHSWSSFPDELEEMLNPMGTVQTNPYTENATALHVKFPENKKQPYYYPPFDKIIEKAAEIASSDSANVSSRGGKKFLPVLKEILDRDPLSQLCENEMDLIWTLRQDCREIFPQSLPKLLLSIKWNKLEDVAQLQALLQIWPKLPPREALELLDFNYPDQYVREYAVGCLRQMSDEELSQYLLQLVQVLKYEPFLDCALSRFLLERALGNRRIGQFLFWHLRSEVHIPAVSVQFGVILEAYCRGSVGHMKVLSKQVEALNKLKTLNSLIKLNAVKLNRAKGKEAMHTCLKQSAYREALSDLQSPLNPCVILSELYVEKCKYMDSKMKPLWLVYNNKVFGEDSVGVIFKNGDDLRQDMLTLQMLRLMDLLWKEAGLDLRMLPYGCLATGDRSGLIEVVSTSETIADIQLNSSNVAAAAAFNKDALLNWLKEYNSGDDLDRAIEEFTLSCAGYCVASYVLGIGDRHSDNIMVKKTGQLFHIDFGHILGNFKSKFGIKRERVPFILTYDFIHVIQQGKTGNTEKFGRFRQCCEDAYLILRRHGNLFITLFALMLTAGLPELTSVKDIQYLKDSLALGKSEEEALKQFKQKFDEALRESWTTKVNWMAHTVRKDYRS

Chain of PIK3CA (human) (P42336 whole entry, looked up): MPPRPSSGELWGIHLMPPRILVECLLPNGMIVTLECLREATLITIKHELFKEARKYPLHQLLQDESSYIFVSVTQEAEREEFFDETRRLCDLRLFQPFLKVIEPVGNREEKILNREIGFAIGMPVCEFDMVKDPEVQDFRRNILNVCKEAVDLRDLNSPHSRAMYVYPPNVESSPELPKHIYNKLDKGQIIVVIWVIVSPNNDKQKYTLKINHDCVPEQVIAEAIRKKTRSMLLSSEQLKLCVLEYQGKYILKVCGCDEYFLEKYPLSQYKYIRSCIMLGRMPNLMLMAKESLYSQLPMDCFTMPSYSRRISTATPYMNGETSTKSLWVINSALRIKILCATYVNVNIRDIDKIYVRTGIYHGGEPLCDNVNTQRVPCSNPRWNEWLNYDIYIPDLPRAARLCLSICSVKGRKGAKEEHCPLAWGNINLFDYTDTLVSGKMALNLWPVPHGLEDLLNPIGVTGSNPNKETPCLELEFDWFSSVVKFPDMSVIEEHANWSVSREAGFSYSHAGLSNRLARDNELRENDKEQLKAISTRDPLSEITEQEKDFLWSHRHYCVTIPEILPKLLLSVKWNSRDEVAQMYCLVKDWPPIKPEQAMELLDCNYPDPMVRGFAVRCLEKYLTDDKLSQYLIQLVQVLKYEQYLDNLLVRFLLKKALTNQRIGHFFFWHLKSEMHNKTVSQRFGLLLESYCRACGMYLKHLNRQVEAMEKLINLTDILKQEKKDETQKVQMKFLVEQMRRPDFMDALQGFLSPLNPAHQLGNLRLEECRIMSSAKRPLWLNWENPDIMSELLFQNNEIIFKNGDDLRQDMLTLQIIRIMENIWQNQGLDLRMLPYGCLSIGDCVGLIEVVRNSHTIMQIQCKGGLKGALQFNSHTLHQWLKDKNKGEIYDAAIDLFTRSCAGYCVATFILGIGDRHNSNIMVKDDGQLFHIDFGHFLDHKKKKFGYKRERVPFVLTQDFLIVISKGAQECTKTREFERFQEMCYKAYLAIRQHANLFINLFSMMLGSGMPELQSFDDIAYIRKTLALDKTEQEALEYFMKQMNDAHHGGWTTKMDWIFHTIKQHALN
Chain of PIK3CG (human) (P48736 whole entry, looked up): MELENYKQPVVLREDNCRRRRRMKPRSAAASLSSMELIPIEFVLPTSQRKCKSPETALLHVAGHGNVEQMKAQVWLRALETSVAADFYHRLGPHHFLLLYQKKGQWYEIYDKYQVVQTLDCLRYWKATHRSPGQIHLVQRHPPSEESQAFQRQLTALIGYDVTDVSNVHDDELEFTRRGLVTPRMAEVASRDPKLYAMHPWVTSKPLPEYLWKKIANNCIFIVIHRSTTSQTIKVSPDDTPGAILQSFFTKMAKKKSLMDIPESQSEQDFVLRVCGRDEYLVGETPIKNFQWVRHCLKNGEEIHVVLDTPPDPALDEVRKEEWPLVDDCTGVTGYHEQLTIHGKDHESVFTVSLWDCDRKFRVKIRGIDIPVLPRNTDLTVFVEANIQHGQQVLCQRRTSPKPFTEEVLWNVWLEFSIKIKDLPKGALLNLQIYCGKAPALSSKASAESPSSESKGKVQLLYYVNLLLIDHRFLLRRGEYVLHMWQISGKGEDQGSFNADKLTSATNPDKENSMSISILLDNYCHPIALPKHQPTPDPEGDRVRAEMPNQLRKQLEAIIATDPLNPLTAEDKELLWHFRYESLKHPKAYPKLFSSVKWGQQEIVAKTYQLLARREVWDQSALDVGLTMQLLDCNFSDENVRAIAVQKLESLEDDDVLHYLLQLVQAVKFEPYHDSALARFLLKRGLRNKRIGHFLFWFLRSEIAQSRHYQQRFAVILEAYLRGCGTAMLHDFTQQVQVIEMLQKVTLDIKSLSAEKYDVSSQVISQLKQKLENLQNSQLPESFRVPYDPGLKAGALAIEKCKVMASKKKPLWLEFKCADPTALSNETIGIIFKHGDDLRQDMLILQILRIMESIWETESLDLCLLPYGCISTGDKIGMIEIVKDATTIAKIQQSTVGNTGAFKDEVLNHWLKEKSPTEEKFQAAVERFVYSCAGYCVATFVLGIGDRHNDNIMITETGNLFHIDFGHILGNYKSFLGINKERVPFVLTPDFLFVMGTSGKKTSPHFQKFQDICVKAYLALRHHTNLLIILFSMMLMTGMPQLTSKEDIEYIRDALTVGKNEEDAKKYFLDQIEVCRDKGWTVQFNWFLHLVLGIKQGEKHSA

Row | SMILES | IC50 (PIK3CA (human)) | IC50 (PIK3CG (human)) | IC50 (PIK3CD (Human)) [nM] | IC50 (PIK3CB (Human)) [nM]
1 | Cc1cc(C(C)Nc2ccccc2)c2nc(N3CCOCC3)cc(=O)n2c1 (stereo unspecified) | 5000 nM and 784 nM | 3500 nM and 3240 nM | – | –
2 | CC(=O)Nc1cccc(-c2nc(N3CCOCC3)c3oc4ncccc4c3n2)c1 | 301 nM | 9070 nM | 333 | 2650
